Patent publication EP4744665A1, “COMBINATION OF POLQ INHIBITOR COMPOUND AND ANTI-CANCER THERAPEUTIC AGENT OR RADIOTHERAPY” (Simcere Zaiming Pharmaceutical Co., Ltd., priority 2023, dated 2025)

Key:
Assay in all cases: Combined use with combination drug, matrix study, Bliss Independence model (Cell Titer Glo, 7 days)
Type in all cases: cell-based
DLD1 = conditions: combination with SN38 (Topoisomerase I inhibitor)
Protocol: (§1) DLD-1 colorectal adenocarcinoma cells, DLD-1 BRCA2 (-/-) colorectal adenocarcinoma cells, SHP-77 human small cell lung cancer cells, NCI-H82 human small cell lung cancer cells, LNCAP prostate cancer cells, KURAMOCHI human ovarian cancer cells, A2780 human ovarian cancer cells, and NCI-H23 non-small cell lung cancer cells were cultured in a 1640 medium containing 10% fetal bovine serum. SKOV3 human ovarian cancer cells were cultured in a McCoy's 5A (modified) medium containing 10% fetal bovine serum. OVCAR3 ovarian cancer cells were cultured in a 1640 medium containing 20% fetal bovine serum and 10 µg/mL bovine insulin. MDA-MB-436 breast cancer cells (natural BRCA1 mutation) and A549 non-small cell lung cancer cells were cultured in a DMEM medium containing 10% fetal bovine serum. Capan-1 human pancreatic cancer cells (natural BRCA2 mutation) were cultured in an IMDM medium containing 20% fetal bovine serum. The cells were all cultured at 37 °C with 5% CO2. Cells at the logarithmic growth phase were available for the experiment.
(§2) 100 µL of the cell medium was added to rows A and H and columns 1 and 12 of a 96-well cell culture plate. Cultured cells were resuspended (adherent cells were digested with trypsin) and counted to give information on cell density and viability. The dilution ratio of the resuspended cells required for inoculating a fixed number of cells into 80 µL of the medium in each culture well was calculated based on the cell density information. After the resuspended cells were diluted with the corresponding medium, 80 µL of the diluted cells were transferred to columns 2-11 of rows B-G of a 96-well cell culture plate using an Eppendorf multi-channel pipette (60 wells in total for each plate). The cell culture plate was incubated overnight in an incubator at 37 °C with 5% CO2.
(§3) The test compound and the combination compound were dissolved in DMSO to give a 10 mM solution for later use. In the experiment, the compound was further diluted to the corresponding concentration according to the concentration designed in the experiment, and based on this concentration, serial gradient dilution was performed. Matrix study was performed at 8 or 7 dose concentrations of the test compound (the lowest dose concentration was 0, and other specific concentration values were shown in FIG. 1) and 7 or 8 dose concentrations of the combination compound (the lowest dose concentration was 0, and other specific concentration values were shown in FIG. 1). 10 µL of each of the diluted combination compound and test compound was added to the corresponding cell plate well, such that the final concentration of DMSO was 0.25%. The test compound and the cells were incubated in an incubator at 37 °C with 5% CO2 for another 7 days, Cell Titer Glo was added at 50 µL/well, and the luminescence value of each well was read using an Envision microplate reader.
(§4) The luminescence value of the well containing only the cell medium was taken as the background (RLUbackground, corresponding cell survival rate to be 0%), the cell well containing only 0.25% DMSO without the compound was taken as the maximum signal (RLUDMSO, corresponding cell survival rate to be 100%), and the luminescence values of the remaining wells containing cells and compounds at different concentrations were taken as RLUsample. The survival rate of each cell well was calculated as follows: Survival rate (%) = (RLUsample−RLUbackground)/(RLUDMSO−RLUbackground) × 100% [formula]
(§5) The interaction between drugs (synergistic, independent, or antagonistic) was statistically analyzed by the Bliss Independence model using Combenefit software (Bliss, C.I., Bacteriol. Rev., 1956, 20, 243-258). The model assumes that each drug acts independently. The theoretical expected action curve of the combination was calculated from the following equation: Bliss effect = effect A + effect B−effect A × effect B [formula] wherein effect A and effect B are the effects of drugs A and B alone at specific concentrations. […]

NCIH23 = test system: NCIH23
Protocol: as §1, §2, §3, §4, §5

A549 = test system: A549
Protocol: as §1, §2, §3, §4, §5

OVCAR3 = test system: OVCAR3
Protocol: as §1, §2, §3, §4, §5

MDA-MB-436 = test system: MDA-MB-436
Protocol: as §1, §2, §3, §4, §5

DLD-1 BRCA2 (-/-) = test system: DLD-1 BRCA2 (-/-)
Protocol: as §1, §2, §3, §4, §5

[1] = combination with Talazoparib (PARP inhibitor)
[2] = combination with Niraparib (PARP inhibitor)
[3] = combination with Olaparib (PARP inhibitor)
[4] = combination with AZD5305 (PARP inhibitor)

Measured: Combined effect

COc1ccc(Cl)cc1-c1cc(C)ncc1C(=O)Nc1nc2ncc(-c3ccc(C#N)cc3)nc2s1.[Na] [Sodium salt of compound I, Sodium Salt of 4-(5-Chloro-2-methoxyphenyl)-N-[6-(4-cyanophenyl)thiazolo[4,5-b]pyrazin-2-yl]-6-methylnicotinamide]
Synergistic: DLD1 | NCIH23; combination with RP3500 (ATR inhibitor) | NCIH23; [1] | A549; combination with Cisplatin (Platinum derivative) | A549; combination with Etoposide (Topoisomerase II inhibitor) | OVCAR3; combination with Carboplatin (Platinum derivative) | OVCAR3; [2] | OVCAR3; [3] | OVCAR3; [1] | MDA-MB-436; [4] | MDA-MB-436; combination with AZD7648 (DNA-PK inhibitor) | MDA-MB-436; [2] | MDA-MB-436; [3] | DLD-1 BRCA2 (-/-); [4] | DLD-1 BRCA2 (-/-); [2]
